The record followed here is ChEMBL document CHEMBL1201862, “PubChem BioAssay data set” (2004).

Among the test systems are Malme-3M; HOP-92; NCI-H460; DLD-1; M14; CCRF-CEM; IGROV-1; SK-MEL-28; RXF 393; SNB-75; HL-60; 786-0; UACC-257; HT-29; SF-295; A498.
What all share (test): growth of human tumour cells (NCI), 48 h

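1) Cells in 96-well plates. 2) Compound, 48 h, 5 concentrations. 3) Linear interpolation between surrounding doses. 4) Unreached endpoint = highest concentration. At the GI50, growth is halved.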 Calls of active or inactive are those of the source. No stated cut-off is given here; in the data, active = GI50 up to about 1.1 µM and inactive = higher. A value given as a limit tells only on which side of the number the result lay.

Regarding `Cc1ccc(NC(=O)CC(=O)n2nc(-c3ccccc3)c(/N=N\c3ccccc3[N+](=O)[O-])c2-c2ccccc2)cc1`, the GI50 with Malme-3M was 86.1 µM (inactive); in the assay with HOP-92, 28.2 µM (inactive); in the assay on NCI-H460, 35.8 µM (inactive); in the assay with DLD-1, 77.8 µM (inactive); with M14, > 100 µM (inactive); with CCRF-CEM, > 100 µM (inactive). Further, the GI50 was > 100 µM (inactive) in the assay with IGROV-1; > 100 µM (inactive) in the assay on SK-MEL-28; 55.1 µM (inactive) with RXF 393; 69.3 µM (inactive) with SNB-75; 86.5 µM (inactive) in the assay on HL-60; 28.4 µM (inactive) in the assay with 786-0. The GI50 in the assay with UACC-257 is > 100 µM (inactive); with HT-29 it was > 100 µM (inactive); in the assay with SF-295 it was 29 µM (inactive).

Regarding `O=S(=O)(NCn1ccc2ccccc21)c1ccccc1`, the GI50 in the assay on Malme-3M is > 100 µM (inactive); in the assay with HOP-92, > 100 µM (inactive); with NCI-H460, > 100 µM (inactive); in the assay with DLD-1, 40.9 µM (inactive); in the assay with M14, > 100 µM (inactive); in the assay with CCRF-CEM, > 88.5 µM (inactive). Besides, the GI50 is > 100 µM (inactive) in the assay with IGROV-1; > 77.8 µM (inactive) in the assay on SK-MEL-28; > 63.8 µM (inactive) with RXF 393; > 100 µM (inactive) in the assay on SNB-75; 22.4 µM (inactive) in the assay with HL-60; > 100 µM (inactive) in the assay on 786-0. The GI50 is > 88.7 µM (inactive) with UACC-257, 37 µM (inactive) in the assay with HT-29, > 100 µM (inactive) in the assay on SF-295 and > 100 µM (inactive) in the assay with A498.

For `CC1CC(C)C2OC2(C)C[C@H](C)C(=O)NC(C)C(=O)N(C)[C@H](Cc2c(Br)[nH]c3ccccc23)C(=O)N[C@@H](c2ccc(O)cc2)CC(=O)O1` (stereo not given in full), the GI50 was 0.527 µM (active) in the assay on Malme-3M; 0.352 µM (active) in the assay with HOP-92; 0.0388 µM (active) in the assay with NCI-H460; 3.37 µM (inactive) in the assay with DLD-1; 0.729 µM (active) with M14; 0.0417 µM (active) in the assay on CCRF-CEM. The GI50 in the assay on IGROV-1 is 0.272 µM (active); in the assay on SK-MEL-28, 0.839 µM (active); in the assay with RXF 393, 1.47 µM (inactive); with SNB-75, 0.142 µM (active); in the assay on HL-60, 0.0723 µM (active); in the assay with 786-0 it was 1.43 µM (inactive). Moreover, the GI50 in the assay with UACC-257 is 0.418 µM (active); in the assay on HT-29 it was 0.106 µM (active); with SF-295, 1.22 µM (inactive); with A498 it was 0.522 µM (active).

Regarding `COc1ccc(/C=C2\CCCC(C(NO)c3ccc(OC)cc3)C2=NO)cc1` (stereo not given), the GI50 was 34.1 µM (inactive) in the assay with Malme-3M; 59.8 µM (inactive) in the assay on NCI-H460; 46.7 µM (inactive) with DLD-1; 39.7 µM (inactive) with M14; 33.9 µM (inactive) with CCRF-CEM; 33.9 µM (inactive) in the assay on IGROV-1. Further, the GI50 was 26.9 µM (inactive) in the assay on SK-MEL-28; 26.7 µM (inactive) in the assay with RXF 393; 26.3 µM (inactive) with SNB-75; 16.2 µM (inactive) with HL-60; 29.2 µM (inactive) with 786-0; 38.1 µM (inactive) in the assay on UACC-257. The GI50 was 72.1 µM (inactive) with HT-29, 55.6 µM (inactive) with SF-295 and 36.1 µM (inactive) with A498.

In the case of `CC(=O)NC(CCCNC(=O)OCc1ccccc1)C(=O)O` (stereo not given), the GI50 in the assay on Malme-3M, in the assay on HOP-92, in the assay with NCI-H460, with DLD-1, with M14 and in the assay with CCRF-CEM was > 100 µM (inactive) throughout. Moreover, the GI50 with IGROV-1 was > 100 µM (inactive); in the assay on SK-MEL-28 it was > 100 µM (inactive); with RXF 393, > 100 µM (inactive); with SNB-75 it was 68.1 µM (inactive); in the assay with 786-0, > 100 µM (inactive); in the assay on UACC-257 it was > 100 µM (inactive). Moreover, the GI50 in the assay on HT-29, in the assay on SF-295 and with A498 was > 100 µM (inactive) throughout.

With `CC1(O)CCn2c(=O)c3cc4ccccc4cc3c(=O)n2C1O` (stereo not given), the GI50 with Malme-3M is > 100 µM (inactive); in the assay with HOP-92, 79.3 µM (inactive); with NCI-H460, > 100 µM (inactive); in the assay with DLD-1 it was > 100 µM (inactive); with CCRF-CEM, > 100 µM (inactive); with IGROV-1 it was > 100 µM (inactive). Further, the GI50 in the assay with SK-MEL-28, in the assay on RXF 393, in the assay on HL-60, with 786-0, in the assay on UACC-257 and in the assay on HT-29 was > 100 µM (inactive) throughout. In addition, in the assay with SF-295, the GI50 was > 100 µM (inactive).

On to `CC(=O)Nc1ccccc1-c1nc2ccccc2nc1C`, for which the GI50 in the assay with Malme-3M, in the assay on HOP-92, with NCI-H460, in the assay on DLD-1, in the assay on M14 and with CCRF-CEM was > 100 µM (inactive) throughout. Further, the GI50 was > 100 µM (inactive) with IGROV-1; > 100 µM (inactive) with SK-MEL-28; 81.5 µM (inactive) with SNB-75; > 100 µM (inactive) with HL-60; > 100 µM (inactive) in the assay on 786-0; > 100 µM (inactive) in the assay with UACC-257. The GI50 in the assay with HT-29, with SF-295 and in the assay with A498 was > 100 µM (inactive) in each case.

With `NN=C1/C(=C\c2ccccc2)CCC/C1=C/c1ccccc1`, the GI50 is 22.4 µM (inactive) with Malme-3M; 25.7 µM (inactive) in the assay with HOP-92; 32 µM (inactive) in the assay on NCI-H460; 31.8 µM (inactive) in the assay with DLD-1; 41.6 µM (inactive) in the assay on M14; 20.1 µM (inactive) with CCRF-CEM. Further, the GI50 is 39.1 µM (inactive) in the assay with IGROV-1; 39.5 µM (inactive) in the assay on SK-MEL-28; 31 µM (inactive) in the assay with RXF 393; 17.7 µM (inactive) in the assay with SNB-75; 20.3 µM (inactive) in the assay with HL-60; 39.5 µM (inactive) with 786-0. Moreover, the values for the GI50 with UACC-257, with SF-295 and in the assay with A498 were 30.8 µM (inactive), 45.3 µM (inactive) and 29.6 µM (inactive), respectively.

As to `C=CCNC(=O)/C=C\C(=O)O`, the GI50 in the assay on Malme-3M, with HOP-92, in the assay on NCI-H460, in the assay with DLD-1, in the assay with M14 and in the assay with CCRF-CEM was > 100 µM (inactive) each time. The GI50 with IGROV-1, in the assay with SK-MEL-28, in the assay on RXF 393, in the assay with SNB-75, in the assay with HL-60 and in the assay on 786-0 was > 100 µM (inactive) throughout. Also, the GI50 with UACC-257, in the assay with HT-29, with SF-295 and with A498 was > 100 µM (inactive) throughout.

In the case of `CC(=O)/C=C\C1CC2C=CC1C2` (stereo not given), the GI50 with Malme-3M was 27.2 µM (inactive); with HOP-92, 29.2 µM (inactive); in the assay with NCI-H460 it was 44.1 µM (inactive); with DLD-1, 15.1 µM (inactive); with M14, 33.7 µM (inactive); in the assay with CCRF-CEM it was 16.3 µM (inactive). Moreover, the GI50 in the assay with IGROV-1 is 81.3 µM (inactive); in the assay on RXF 393 it was 63 µM (inactive); in the assay on SNB-75, 21.6 µM (inactive); with HL-60 it was 26.8 µM (inactive); in the assay on 786-0, 43.1 µM (inactive); in the assay on SF-295, 31 µM (inactive).

Consider `COc1c(NC(C)=O)cc(C)cc1NC(C)=O`, for which the GI50 in the assay with HOP-92, with NCI-H460, in the assay with DLD-1, in the assay with M14, with CCRF-CEM and in the assay with SK-MEL-28 was > 100 µM (inactive) throughout. For the same molecule, the GI50 in the assay with RXF 393, with SNB-75, with HL-60, with 786-0, with UACC-257 and in the assay on SF-295 was > 100 µM (inactive) each time. Moreover, the GI50 in the assay with A498 was > 100 µM (inactive).

Consider `CC/C(CC(=O)CCC(=O)Nc1ccc(C)c(C)c1)=N\NC(=O)C(N)=O`, for which the GI50 in the assay with Malme-3M, with HOP-92, in the assay on DLD-1, in the assay with M14, in the assay with CCRF-CEM and in the assay with IGROV-1 was > 100 µM (inactive) in each case. For the same molecule, the GI50 with SK-MEL-28, with SNB-75, in the assay with HL-60, with 786-0, in the assay on UACC-257 and in the assay with HT-29 was > 100 µM (inactive) throughout. The GI50 with SF-295 and in the assay on A498 was > 100 µM (inactive) throughout.

On to `O=C(/C=C/c1c(O)ccc2ccccc12)c1ccc2ccccc2c1`, for which the GI50 with Malme-3M, with HOP-92, in the assay on NCI-H460, in the assay with DLD-1, in the assay on CCRF-CEM and in the assay on IGROV-1 was > 100 µM (inactive) throughout. Moreover, the GI50 in the assay with SK-MEL-28, in the assay with RXF 393, with SNB-75, in the assay on HL-60, with 786-0 and with UACC-257 was > 100 µM (inactive) each time. In addition, the GI50 in the assay with HT-29, with SF-295 and in the assay on A498 was > 100 µM (inactive) each time.
